System: 50 kinases
Assay: Profiling against 50 kinases, radioactive filter-binding assay
Format: biochemical
Conditions: duplicate (Supplementary Figure 1)

SMILES: NCCCNc1nc(Nc2cccc(NC(=O)N3CCCC3)c2)ncc1I [Compound 3, N-(3-((4-((3-aminopropyl)amino)-5-iodopyrimidin-2-yl)amino)phenyl)pyrrolidine-1-carboxamide]
- selectivity throughout the kinome: good selectivity throughout the kinome

Source: publication PMC4864979 (Bioorganic & medicinal chemistry, 2015)
